Results published in the NIST ThermoML archive (doi:10.1016/j.jct.2017.07.026).
Numbers after ± are expanded uncertainties. Values belong to the compound of their own block, whether it stands above or below them.

Key:
[1] = mn = molality of the nth substance listed, in mol/kg; details: 298.15 K, 100 kPa, Liquid, Vibrating tube method
[2] = 298.15 K, Liquid

Structure (SMILES): Cc1ccccc1 [toluene]
mass density ([2]; 101.33 kPa, Pycnometric method): 862.214 ± 0.26 kg/m3

Structure (SMILES): CO [methanol] + CCC(C)CC
mass density ([1]; m2 = 0): 786.57 ± 0.33 kg/m3

Structure (SMILES): CCCCCCC [heptane]
mass density ([2]; 101.33 kPa, Pycnometric method): 679.455 ± 0.22 kg/m3

Structure (SMILES): CO [methanol] + CCCC(C)C
mass density ([1]; m2 = 0): 786.57 ± 0.33 kg/m3

Structure (SMILES): CCC(C)CC [3-methylpentane]
mass density ([2]; 100 kPa, Vibrating tube method): 659.76 ± 0.68 kg/m3

Structure (SMILES): CO [methanol] + CCCCCC(C)C
mass density ([1]; m2 = 0): 786.57 ± 0.33 kg/m3

Structure (SMILES): CO [methanol]
mass density ([2]; 100 kPa, Vibrating tube method): 786.57 ± 0.33 kg/m3

Structure (SMILES): CCC(C)CC [3-methylpentane] + CO
mass density ([1]; m1 = 0.02902): 786.12 ± 0.33 kg/m3
mass density ([1]; m1 = 0.04025): 785.97 ± 0.33 kg/m3
mass density ([1]; m1 = 0.06079): 785.65 ± 0.33 kg/m3
mass density ([1]; m1 = 0.07925): 785.37 ± 0.33 kg/m3
mass density ([1]; m1 = 0.1106): 784.93 ± 0.33 kg/m3
mass density ([1]; m1 = 0.2045): 783.51 ± 0.33 kg/m3
mass density ([1]; m1 = 0.307): 782.05 ± 0.33 kg/m3
mass density ([1]; m1 = 0.3825): 781.03 ± 0.33 kg/m3
mass density ([1]; m1 = 0.3944): 780.81 ± 0.34 kg/m3
mass density ([1]; m1 = 0.4638): 779.87 ± 0.33 kg/m3
mass density ([1]; m1 = 0.5751): 778.42 ± 0.33 kg/m3
mass density ([1]; m1 = 0.6145): 777.81 ± 0.34 kg/m3
mass density ([1]; m1 = 0.7207): 776.46 ± 0.34 kg/m3

More lines, now with the values ahead:

mass density ([1]; m1 = 0.02577): 786.15 ± 0.33 kg/m3
mass density ([1]; m1 = 0.09112): 785.08 ± 0.33 kg/m3
mass density ([1]; m1 = 0.1002): 784.95 ± 0.33 kg/m3
mass density ([1]; m1 = 0.1267): 784.51 ± 0.33 kg/m3
mass density ([1]; m1 = 0.1833): 783.59 ± 0.33 kg/m3
mass density ([1]; m1 = 0.2247): 782.95 ± 0.33 kg/m3
mass density ([1]; m1 = 0.2392): 782.73 ± 0.33 kg/m3
mass density ([1]; m1 = 0.3355): 781.24 ± 0.33 kg/m3
mass density ([1]; m1 = 0.3506): 781.02 ± 0.33 kg/m3
mass density ([1]; m1 = 0.3833): 780.53 ± 0.33 kg/m3
mass density ([1]; m1 = 0.4498): 779.5 ± 0.33 kg/m3
mass density ([1]; m1 = 0.4937): 778.85 ± 0.34 kg/m3
mass density ([1]; m1 = 0.5032): 778.68 ± 0.34 kg/m3
mass density ([1]; m1 = 0.5629): 777.84 ± 0.34 kg/m3
mass density ([1]; m1 = 0.6343): 776.78 ± 0.34 kg/m3
Structure (SMILES): CCCC(C)C [2-methylpentane] + CO

mass density ([2]; 100 kPa, Vibrating tube method): 648.48 ± 0.67 kg/m3
Structure (SMILES): CCCC(C)C [2-methylpentane]

mass density ([1]; m1 = 0.1174): 784.76 ± 0.33 kg/m3
mass density ([1]; m1 = 0.1406): 784.42 ± 0.33 kg/m3
mass density ([1]; m1 = 0.2155): 783.3 ± 0.33 kg/m3
mass density ([1]; m1 = 0.3711): 781.09 ± 0.33 kg/m3
mass density ([1]; m1 = 0.4177): 780.47 ± 0.33 kg/m3
mass density ([1]; m1 = 0.4497): 780.04 ± 0.33 kg/m3
mass density ([1]; m1 = 0.5259): 779.01 ± 0.33 kg/m3
mass density ([1]; m1 = 0.5815): 778.29 ± 0.34 kg/m3
mass density ([1]; m1 = 0.639): 777.54 ± 0.34 kg/m3
mass density ([1]; m1 = 0.7339): 776.35 ± 0.34 kg/m3
Structure (SMILES): CCCCCC(C)C [2-methylheptane] + CO

mass density ([2]; 100 kPa, Vibrating tube method): 693.9 ± 1.4 kg/m3
Structure (SMILES): CCCCCC(C)C [2-methylheptane]
